# Results from PubChem BioAssay AID248 (DTP/NCI, 2004).
# Values joined by “and” are separate entries in the source; they are usually repeats but may differ in a detail not shown here. Identical values can stand only once. Inconclusive results and toxic doses are left out.
# Tested on: L1210 leukemia ip in BDF1 mice, survival T/C
# Experiment: NCI In Vivo Anticancer Drug Screen. Data for tumor model L1210 Leukemia (intraperitoneal) in B6D2F1 (BDF1) mice
# Settings: endpoint: mean survival time, higher = longer survival
# In short: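 Survival endpoint. Drug-treated group vs vehicle group, expressed as T divided by C. Tumor passaged by transplantation.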
# [1] = dose: 100.0 mg/kg/injection, schedule: Q04DX003 (ip), vehicle: saline
# [2] = dose: 200.0 mg/kg/injection, schedule: Q04DX003 (ip), vehicle: saline
# [3] = dose: 400.0 mg/kg/injection, schedule: Q04DX003 (ip), vehicle: saline
# [4] = dose: 100.0 mg/kg/injection, schedule: Q01DX001 (ip), vehicle: saline
# [5] = dose: 200.0 mg/kg/injection, schedule: Q01DX001 (ip), vehicle: saline
# [6] = dose: 400.0 mg/kg/injection, schedule: Q01DX001 (ip), vehicle: saline
# [7] = dose: 100.0 mg/kg/injection, schedule: Q01DX001 (ip), vehicle: carboxymethylcellulose (CMC)
# [8] = dose: 200.0 mg/kg/injection, schedule: Q01DX001 (ip), vehicle: carboxymethylcellulose (CMC)
# [9] = dose: 400.0 mg/kg/injection, schedule: Q01DX001 (ip), vehicle: carboxymethylcellulose (CMC)
smiles,measurement,setting,value
O=[N+]([O-])c1ccc(-c2ccc(-c3ccccc3)cc2)cc1,T/C,"dose: 100.0 mg/kg/injection, schedule: Q01DX001 (ip), vehicle: acetone",98 % of control
same,T/C,"dose: 100.0 mg/kg/injection, schedule: Q04DX003 (ip), vehicle: acetone",91 % of control
same,T/C,"dose: 200.0 mg/kg/injection, schedule: Q01DX001 (ip), vehicle: acetone",95 % of control
same,T/C,"dose: 200.0 mg/kg/injection, schedule: Q04DX003 (ip), vehicle: acetone",86 % of control
same,T/C,"dose: 400.0 mg/kg/injection, schedule: Q01DX001 (ip), vehicle: acetone",92 % of control
same,T/C,"dose: 400.0 mg/kg/injection, schedule: Q04DX003 (ip), vehicle: acetone",89 % of control
CC(=O)c1ccc(CC2CCC2)cc1,T/C,"dose: 75.0 mg/kg/injection, schedule: Q01DX009 (ip), vehicle: Klucel (hydroxypropylcellulose) (HPC)",97 % of control
same,T/C,"dose: 150.0 mg/kg/injection, schedule: Q01DX009 (ip), vehicle: Klucel (hydroxypropylcellulose) (HPC)",112 % of control
same,T/C,"dose: 300.0 mg/kg/injection, schedule: Q01DX009 (ip), vehicle: Klucel (hydroxypropylcellulose) (HPC)",110 % of control
CC12CCCC(=O)C1CC/C(=C\c1ccco1)C2=O (stereo not given),T/C,"dose: 100.0 mg/kg/injection, schedule: Q01DX009 (ip), vehicle: saline",109 % of control
same,T/C,[1],102 % of control
same,T/C,"dose: 200.0 mg/kg/injection, schedule: Q01DX009 (ip), vehicle: saline",98 % of control
same,T/C,[2],104 % of control
same,T/C,"dose: 400.0 mg/kg/injection, schedule: Q01DX009 (ip), vehicle: saline",114 % of control
same,T/C,[3],104 % of control
CCN(CC)S(=O)(=O)c1ccc(OC)c(NC(=O)c2ccc(C(=O)Nc3cc(S(=O)(=O)N(CC)CC)ccc3OC)cc2)c1,T/C,[4],97 % of control
same,T/C,[5],94 % of control
same,T/C,[6],102 % of control
CCOC(=O)NCC(CCN(C)CC)(c1cccc2ccccc12)C(C)C (stereo not given),T/C,"dose: 12.5 mg/kg/injection, schedule: Q01DX009 (ip), vehicle: saline with Tween-80",93 % of control
same,T/C,"dose: 12.5 mg/kg/injection, schedule: Q04DX003 (ip), vehicle: saline with Tween-80",93 % of control
same,T/C,"dose: 25.0 mg/kg/injection, schedule: Q01DX009 (ip), vehicle: saline with Tween-80",98 % of control
same,T/C,"dose: 25.0 mg/kg/injection, schedule: Q04DX003 (ip), vehicle: saline with Tween-80",98 % of control
same,T/C,"dose: 50.0 mg/kg/injection, schedule: Q04DX003 (ip), vehicle: saline with Tween-80",93 % of control
C/C=C1\C(=O)C2CCC1C2 (stereo not given),T/C,[7],93 % of control
same,T/C,[8],90 % of control
same,T/C,[9],95 % of control
CC(C)(C)OC(=O)N1CCCC1C(=O)O (stereo not given),T/C,[7],109 % of control
same,T/C,[8],104 % of control
same,T/C,[9],95 % of control
CN(CCC[N+](C)(C)C)C(=O)C(c1ccccc1)c1ccccc1,T/C,[1],100 % of control
CC(=O)OC(c1ccccc1)C1CCCCC1N1CCCCC1 (stereo not given),T/C,"dose: 100.0 mg/kg/injection, schedule: Q01DX001 (ip), vehicle: Klucel (hydroxypropylcellulose) (HPC)",95 % of control
same,T/C,"dose: 200.0 mg/kg/injection, schedule: Q01DX001 (ip), vehicle: Klucel (hydroxypropylcellulose) (HPC)",96 % of control
O=C(O)c1ccccc1-c1ccccc1C(=O)Nc1ccc2c(c1)Cc1cc(F)ccc1-2,T/C,"dose: 75.0 mg/kg/injection, schedule: Q01DX001 (ip), vehicle: carboxymethylcellulose (CMC)",91 % of control
same,T/C,"dose: 150.0 mg/kg/injection, schedule: Q01DX001 (ip), vehicle: carboxymethylcellulose (CMC)",98 % of control
Cc1cc(=O)oc2c(CN3CCCCC3)c(O)ccc12,T/C,"dose: 5.0 mg/kg/injection, schedule: Q01DX001 (ip), vehicle: carboxymethylcellulose (CMC)",93 % of control
same,T/C,"dose: 10.0 mg/kg/injection, schedule: Q01DX001 (ip), vehicle: carboxymethylcellulose (CMC)",90 % of control
same,T/C,"dose: 20.0 mg/kg/injection, schedule: Q01DX001 (ip), vehicle: carboxymethylcellulose (CMC)",104 % of control
COC(=O)C(N)Cc1ccc(OC)c(N(CCCl)CCCl)c1 (stereo not given),T/C,"dose: 0.01 mg/kg/injection, schedule: Q01DX009 (ip), vehicle: saline",106 % of control
same,T/C,"dose: 0.02 mg/kg/injection, schedule: Q01DX009 (ip), vehicle: saline",116 % of control
same,T/C,"dose: 0.05 mg/kg/injection, schedule: Q01DX009 (ip), vehicle: saline",110 % of control
same,T/C,"dose: 0.1 mg/kg/injection, schedule: Q01DX009 (ip), vehicle: saline",121 % of control
same,T/C,"dose: 0.3 mg/kg/injection, schedule: Q01DX009 (ip), vehicle: saline",155 % of control
same,T/C,"dose: 0.62 mg/kg/injection, schedule: Q01DX001 (ip), vehicle: saline",106 % of control
same,T/C,"dose: 1.25 mg/kg/injection, schedule: Q01DX001 (ip), vehicle: saline",98 % of control
same,T/C,"dose: 1.5 mg/kg/injection, schedule: Q01DX001 (ip), vehicle: carboxymethylcellulose (CMC)",115 % of control
same,T/C,"dose: 1.5 mg/kg/injection, schedule: Q01DX009 (ip), vehicle: saline",151 % of control
same,T/C,"dose: 2.5 mg/kg/injection, schedule: Q01DX001 (ip), vehicle: saline",106 % of control and 122 % of control
same,T/C,"dose: 2.9 mg/kg/injection, schedule: Q01DX001 (ip), vehicle: saline",105 % of control
same,T/C,"dose: 2.9 mg/kg/injection, schedule: Q01DX009 (ip), vehicle: saline",230 % of control
same,T/C,"dose: 3.0 mg/kg/injection, schedule: Q01DX001 (ip), vehicle: carboxymethylcellulose (CMC)",120 % of control
same,T/C,"dose: 3.0 mg/kg/injection, schedule: Q01DX009 (ip), vehicle: saline",123 % of control
same,T/C,"dose: 4.4 mg/kg/injection, schedule: Q01DX001 (ip), vehicle: saline",104 % of control
same,T/C,"dose: 4.4 mg/kg/injection, schedule: Q01DX009 (ip), vehicle: saline",108 % of control
same,T/C,"dose: 5.0 mg/kg/injection, schedule: Q01DX001 (ip), vehicle: saline",111 % of control and 124 % of control
same,T/C,"dose: 6.0 mg/kg/injection, schedule: Q01DX001 (ip), vehicle: carboxymethylcellulose (CMC)",108 % of control
same,T/C,"dose: 6.6 mg/kg/injection, schedule: Q01DX001 (ip), vehicle: saline",109 % of control
same,T/C,"dose: 10.0 mg/kg/injection, schedule: Q01DX001 (ip), vehicle: saline",107 % of control
CSc1ncnc2c1ncn2NC(=O)C1CC(=O)N(C)C1 (stereo not given),T/C,[4],107 % of control
same,T/C,[5],103 % of control
same,T/C,[6],100 % of control
COc1cc2c(cc1OC)C1(C(=O)c3ccc(OC)c(OC)c3C1=O)N(C(C)=O)C=C2 (stereo not given),T/C,"dose: 12.5 mg/kg/injection, schedule: Q01DX009 (ip), vehicle: Klucel (hydroxypropylcellulose) (HPC)",95 % of control
same,T/C,"dose: 25.0 mg/kg/injection, schedule: Q01DX009 (ip), vehicle: Klucel (hydroxypropylcellulose) (HPC)",103 % of control
same,T/C,"dose: 50.0 mg/kg/injection, schedule: Q01DX009 (ip), vehicle: Klucel (hydroxypropylcellulose) (HPC)",100 % of control
CCOC(=O)NC(=O)C1C2CC3OC(=O)C1C3C2 (stereo not given),T/C,[1],102 % of control
same,T/C,[2],102 % of control
same,T/C,[3],98 % of control
Cc1cc(Nc2ccc(N=Nc3ccc(O)c4ncccc34)cc2)nc(C)n1,T/C,[4],102 % of control
same,T/C,[5],105 % of control
same,T/C,[6],103 % of control
O=S(=O)(CCCl)c1ccc2ccccc2c1,T/C,"dose: 25.0 mg/kg/injection, schedule: Q04DX002 (ip), vehicle: Klucel (hydroxypropylcellulose) (HPC)",100 % of control
same,T/C,"dose: 50.0 mg/kg/injection, schedule: Q04DX002 (ip), vehicle: Klucel (hydroxypropylcellulose) (HPC)",104 % of control
same,T/C,"dose: 100.0 mg/kg/injection, schedule: Q04DX002 (ip), vehicle: Klucel (hydroxypropylcellulose) (HPC)",96 % of control
Cc1ccc(S(=O)(=O)Oc2ccc(C(C)(C)c3ccc(OS(=O)(=O)c4ccc(C)cc4)cc3)cc2)cc1,T/C,"dose: 50.0 mg/kg/injection, schedule: Q01DX001 (ip), vehicle: saline",98 % of control
same,T/C,[4],93 % of control
same,T/C,"dose: 100.0 mg/kg/injection, schedule: Q01DX009 (ip), vehicle: Klucel (hydroxypropylcellulose) (HPC)",96 % of control
same,T/C,"dose: 100.0 mg/kg/injection, schedule: Q04DX003 (ip), vehicle: Klucel (hydroxypropylcellulose) (HPC)",93 % of control
same,T/C,[5],93 % of control
same,T/C,"dose: 200.0 mg/kg/injection, schedule: Q01DX009 (ip), vehicle: Klucel (hydroxypropylcellulose) (HPC)",91 % of control
same,T/C,"dose: 200.0 mg/kg/injection, schedule: Q04DX003 (ip), vehicle: Klucel (hydroxypropylcellulose) (HPC)",95 % of control
same,T/C,[6],90 % of control
same,T/C,"dose: 400.0 mg/kg/injection, schedule: Q01DX009 (ip), vehicle: Klucel (hydroxypropylcellulose) (HPC)",91 % of control
same,T/C,"dose: 400.0 mg/kg/injection, schedule: Q04DX003 (ip), vehicle: Klucel (hydroxypropylcellulose) (HPC)",98 % of control
CC12CCCCC1C(C(N)=O)C(=O)O2 (stereo not given),T/C,[4],105 % of control
same,T/C,[5],97 % of control
same,T/C,[6],105 % of control
